In publication PMC11058275, “Targeted potent antimicrobial and antitumor oxygen-heterocyclic-based pyran analogues: synthesis and computational studies” (Scientific Reports, 2024):
Where two headings read alike, the source gives them in different places.

Columns and labels:
[1] = tested on: HFL-1 (human foetal lung); assay: MTT cytotoxicity assay, normal cells; assay type: cell-based; settings: read-out: IC50 Normotoxicity HFL-1
Description: (§3) The antiproliferative activity of the newly synthesized 1H-benzo[f]chromenes derivatives (4a-q) was examined in three human cancer cell lines: MCF-7 (breast cancer), HCT-116 (human colon cancer), and HepG-2 (hepatocellular carcinoma), as well as the two normal cell lines, HFL-1 (human foetal lung) and WI-38 (human diploid fibroblasts), using the 3-(4,5-dimethylthiazol-2-yl)-2,5-diphenyl tetrazolium bromide (MTT) colorimetric assay[56].
(§4) Compounds 4a-q was initially evaluated for in vitro antitumor activity against three different human cell lines: MCF-7, HCT-116 and HepG-2. In-vitro cytotoxicity evaluation was performed at the Regional Center for Mycology & Biotechnology (RCMP), Al-Azhar University under different concentrations (50, 25, 12.5, 6.25, 3.125, 1.56 and 0 µg/mL); vinblastine and doxorubicin are used as reference cytotoxic compounds.

[2] = tested on: Escherichia coli (ATCC 8739); assay: Agar diffusion antibacterial screening (inhibition zone); assay type: cell-based; settings: ATCC8739, E. coli, 1 mg/mL, Mueller–Hinton agar, read-out: Diameter of inhibition zone
Experimental: (§1) The antibacterial activity of β-enamionitriles (4a-q) was screened using Mueller–Hinton agar medium for bacteria in an agar diffusion methodology. Ciprofloxacin (1 mg/mL) was the reference antibiotic drug used in the analysis of collections that included four gram-positive species of multi drug resistant pathogenic bacteria: Staphylococcus aureus (MRSA) (ATCC 6539), Staphylococcus aureus (ATCC 6538), Bacillus cereus (ATCC 10987), Bacillus subtilis (ATCC 6633), and two gram-negative species of multi drug resistant pathogenic bacteria Klebsiella pneumonia (ATCC 13883) and Escherichia coli (ATCC 8739). […] Using a 1 mg/mL concentration of compounds (4a-q), the minimum zone of inhibition (IZ, the area around the antimicrobial agent where bacterial growth is prevented) was established in mm ± standard deviation beyond the well diameter (6 mm). […] The synthetic compound's inhibitory effects on evaluation against these organisms are depicted in Fig. 9 and Table 1.
(§2) Compound 4a-q was screened for its in vitro antimicrobial activities against pathogenic bacteria species using the standard antibiotics Ampicillin, Gentamycin and Ketoconazole as reference drugs as reported previously. The minimum inhibitory concentration (MIC) was determined as previously reported. The antimicrobial activities were performed at the Regional Centre for Mycology & Biotechnology (RCMP), Al-Azhar University.

[3] = tested on: Bacillus subtilis (ATCC 6633); assay: as above; assay type: cell-based; settings: ATCC6633, B. subtilis, 1 mg/mL, Mueller–Hinton agar, read-out: Diameter of inhibition zone
Experimental: as §1, §2

[4] = tested on: Staphylococcus aureus (MRSA) (ATCC 6539); assay: as above; assay type: cell-based; settings: read-out: Diameter of inhibition zone
Experimental: as §1, §2

[5] = tested on: Staphylococcus aureus (ATCC 6538); assay: as above; assay type: cell-based; settings: ATCC6538, S. aureus, 1 mg/mL, Mueller–Hinton agar, read-out: Diameter of inhibition zone
Experimental: as §1, §2

[6] = tested on: Bacillus cereus (ATCC 10987); assay: as above; assay type: cell-based; settings: ATCC10987, B. cereus, 1 mg/mL, Mueller–Hinton agar, read-out: Diameter of inhibition zone
Experimental: as §1, §2

[7] = tested on: Klebsiella pneumonia (ATCC 13883); assay: as above; assay type: cell-based; settings: Klebsiella pneumoniae, ATCC13883, K. pneumonia, 1 mg/mL, Mueller–Hinton agar, read-out: Diameter of inhibition zone
Experimental: as §1, §2

MCF-7 (breast cancer) = assay: MTT cytotoxicity assay; settings: Homo sapiens
Description: as §3, §4

[8] = tested on: HCT-116 (human colon cancer); assay: MTT cytotoxicity assay; assay type: cell-based
Description: as §3, §4

[9] = tested on: WI-38 (human diploid fibroblasts); assay: MTT cytotoxicity assay, normal cells; assay type: cell-based; settings: read-out: IC50 Normotoxicity WI-38
Description: as §3, §4

[10] = tested on: HepG-2 (hepatocellular carcinoma); assay: MTT cytotoxicity assay; assay type: cell-based; settings: Homo sapiens
Description: as §3, §4

[11] = HFL1, HFL-1 normal cells, MTT, 24-h incubation, mean ± standard error
[12] = MCF7, 24 h, read-out: IC50 Cancerotoxicity MCF-7
[13] = MTT, 24-h incubation, mean ± standard error, read-out: IC50 Cancerotoxicity HCT-116
[14] = WI-38 normal cells, MTT, 24-h incubation, mean ± standard error
[15] = HepG2, MTT, 24-h incubation, mean ± standard error, read-out: IC50 Cancerotoxicity HepG-2

Compound	IC50 [1, 11]	zone of inhibition at 1000 µg/mL [2]	zone of inhibition at 1000 µg/mL [3]	zone of inhibition at 1000 µg/mL [4]	zone of inhibition at 1000 µg/mL [5]	zone of inhibition at 1000 µg/mL [6]	zone of inhibition at 1000 µg/mL [7]	IC50 (MCF-7 (breast cancer); [12])	IC50 [8, 13]	IC50 [9, 14]	IC50 [10, 15]	melting point	IC50 (MCF-7 (breast cancer); MCF7, read-out: IC50 MCF-7)	IC50 ([8]; given in µg/mL, read-out: IC50 HCT-116)	IC50 ([10]; HepG2, given in µg/mL, read-out: IC50 HepG-2)	IC50 ([1]; HFL1, 24 h)	IC50 ([9]; WI-38, 24 h)
COc1ccc2c3c(ccc2c1)OC(N)=C(C#N)C3c1ccc(Cl)cc1Cl (stereo not shown) [Compound 4j, 3-Amino-1-(2,4-dichlorophenyl)-8-methoxy-1H-benzo[f]chromene-2-carbonitrile]	180.8 ± 0.3 µM	12 mm	0 mm	13 mm	0 mm	8 mm	14 mm	2 ± 0.02 µM	5.8 ± 0.16 µM	177.8 ± 0.3 µM	14.1 ± 0.18 µM	285 to 286 °C					
COc1ccc2c3c(ccc2c1)OC(N)=C(C#N)C3c1cc(Cl)ccc1Cl (stereo not shown) [Compound 4k, 3-Amino-1-(2,5-dichlorophenyl)-8-methoxy-1H-benzo[f]chromene-2-carbonitrile]		13 mm	0 mm	12 mm	0 mm	0 mm	15 mm	6.6 ± 0.4 µM	2.5 ± 0.23 µM		1.8 ± 0.03 µM	270 to 271 °C					
COc1ccc2c3c(ccc2c1)OC(N)=C(C#N)C3c1c(Cl)cccc1Cl (stereo not shown) [Compound 4l]		0 mm	0 mm	13 mm	0 mm	8 mm	14 mm	12.1 ± 0.06 µM	21.3 ± 0.01 µM		2.3 ± 0.02 µM	313 to 314 °C					
COc1ccc2c3c(ccc2c1)OC(N)=C(C#N)C3c1ccc(Cl)c(Cl)c1 (stereo not shown) [Compound 4m, 3-Amino-1-(3,4-dichlorophenyl)-8-methoxy-1H-benzo[f]chromene-2-carbonitrile]	181 ± 0.1 µM	10 mm	0 mm	14 mm	0 mm	13 mm	13 mm	1.3 ± 0.21 µM	2.3 ± 0.97 µM	175.5 ± 0.2 µM	1.8 ± 0.06 µM	241 to 242 °C	0.5 ± 0.21 µg/mL	0.9 ± 0.97 µg/mL	0.7 ± 0.06 µg/mL		
COc1ccc2c3c(ccc2c1)OC(N)=C(C#N)C3c1ccc(OC)c(OC)c1OC (stereo not shown) [Compound 4o, 3-amino-1-(2,3,4-trimethoxyphenyl)-8-methoxy-1H-benzo[f]chromene-2-carbonitrile]		12 mm	0 mm	12 mm	10 mm	14 mm	11 mm	55.3 ± 0.01 µM	35.9 ± 0.02 µM		17.6 ± 0.05 µM	240 to 241 °C					
COc1ccc2c3c(ccc2c1)OC(N)=C(C#N)C3c1cc(OC)c(OC)c(OC)c1 (stereo not shown) [Compound 4p, 3-amino-1-(3,4,5-trimethoxyphenyl)-8-methoxy-1H-benzo[f]chromene-2-carbonitrile]		11 mm	0 mm	13 mm	11 mm	15 mm	12 mm	114.4 ± 0.03 µM	91.4 ± 0.01 µM		106.5 ± 0.1 µM	258 to 259 °C					
COc1ccc2c3c(ccc2c1)OC(N)=C(C#N)C3c1cc(Cl)cc(Cl)c1Cl (stereo not shown) [Compound 4q, 3-amino-1-(2,3,5-trichlorophenyl)-8-methoxy-1H-benzo[f]chromene-2-carbonitrile]		12 mm	10 mm	13 mm	10 mm	13 mm	13 mm	110.4 ± 0.1 µM	107 ± 1.6 µM		76.5 ± 0.9 µM	259 to 260 °C					
C#Cc1cccc(Nc2ncnc3cc(OCCOC)c(OCCOC)cc23)c1 [Erlotinib, N-(3-ethynylphenyl)-6,7-bis(2-methoxyethoxy)-4-quinazolinamine, reference compound]																14 ± 1.2 µM	28.5 ± 0.2 µM
